Among the data in patent US11400094B2, “2H-pyrazolo[4,3-d]pyrimidine compounds as toll-like receptor 7 (TLR7) agonists and methods and uses therefor” (BRISTOL-MYERS SQUIBB COMPANY, priority 2018, dated 2022) are EC50 values, retold here.

The first assay deals with T1, human TLR7 (Homo sapiens, UniProt Q9NYK1).
T1 construct: host or cells: HEK-Blue TLR7 cells (engineered human embryonic kidney cells)
T1 sequence (Q9NYK1 27-1049): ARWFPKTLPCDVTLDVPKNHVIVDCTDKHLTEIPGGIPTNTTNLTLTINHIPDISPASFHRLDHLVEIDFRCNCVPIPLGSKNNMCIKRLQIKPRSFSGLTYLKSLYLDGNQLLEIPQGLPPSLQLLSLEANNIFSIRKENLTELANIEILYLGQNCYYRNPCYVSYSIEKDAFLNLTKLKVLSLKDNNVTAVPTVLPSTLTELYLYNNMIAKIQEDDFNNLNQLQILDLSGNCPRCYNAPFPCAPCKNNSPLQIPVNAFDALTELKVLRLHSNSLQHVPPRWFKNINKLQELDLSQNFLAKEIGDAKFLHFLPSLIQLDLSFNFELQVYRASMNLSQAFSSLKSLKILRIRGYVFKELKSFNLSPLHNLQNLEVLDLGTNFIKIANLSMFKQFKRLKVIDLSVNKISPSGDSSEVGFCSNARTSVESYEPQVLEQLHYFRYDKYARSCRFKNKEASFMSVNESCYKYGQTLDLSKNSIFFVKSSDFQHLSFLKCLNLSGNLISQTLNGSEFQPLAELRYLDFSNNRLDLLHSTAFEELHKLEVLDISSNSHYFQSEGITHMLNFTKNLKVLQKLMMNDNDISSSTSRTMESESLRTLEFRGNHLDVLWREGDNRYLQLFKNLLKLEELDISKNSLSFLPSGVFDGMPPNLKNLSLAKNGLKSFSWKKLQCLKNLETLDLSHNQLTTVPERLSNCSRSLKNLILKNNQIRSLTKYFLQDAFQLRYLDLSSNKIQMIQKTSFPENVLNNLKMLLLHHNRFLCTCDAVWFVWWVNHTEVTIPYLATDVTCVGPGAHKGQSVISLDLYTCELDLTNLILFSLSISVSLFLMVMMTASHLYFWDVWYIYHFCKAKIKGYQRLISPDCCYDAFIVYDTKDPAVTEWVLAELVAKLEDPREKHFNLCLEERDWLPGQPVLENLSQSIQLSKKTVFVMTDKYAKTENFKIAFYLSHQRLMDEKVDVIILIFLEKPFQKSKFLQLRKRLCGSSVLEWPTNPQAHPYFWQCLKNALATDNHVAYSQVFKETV
Kind of assay: HEK-Blue TLR7 reporter assay (human TLR7 agonist activity, SEAP reporter). It is filed as cell-based. The following applies: Table A, formula IIa compounds; HEK-Blue TLR7 cells, 18 h treatment, SEAP read-out. (In a reporter assay the amount or activity of a reporter protein is the signal.)
Description: This procedure describes a method for assaying human TLR7 (hTLR7) agonist activity of the compounds disclosed in this specification.
HEK-Blue™ TLR7 cells were added to each well of a 384-well tissue-culture plate (15,000 cells per well) and incubated 16-18 h at 37° C., 5% CO2. […] After 18 h treatment ten microliters of freshly-prepared Quanti-Blue™ reagent (Invivogen) was added to each well, incubated for 30 min (37° C., 5% CO2) and SEAP levels measured using an Envision plate reader (OD=620 nm).
As to `CCCCNc1nc(N)nc2cn(Cc3ccc(CNC4CC(O)C4)cc3OC)nc12` (stereo not shown) [IIa-09], the EC50 was 420 nM. Take `CCCCNc1nc(N)nc2cn(Cc3ccc(CNCC4CC(O)C4)cc3OC)nc12` (stereo not shown) [IIa-24]: the EC50 worked out at 130 nM. On to `CCCCNc1nc(N)nc2cn(Cc3ccc(CNc4ccc(CCO)cc4)cc3OC)nc12` [IIa-25], for which the EC50 was found to be 880 nM. Regarding `CCCCNc1nc(N)nc2cn(Cc3ccc(CNCC4COC4)cc3OC)nc12` [IIa-07], the EC50 stood at 610 nM.

With `CCCCNc1nc(N)nc2cn(Cc3ccc(CN4CCCCC4)cc3OC)nc12` [IIa-31], the EC50 came to 410 nM. With `CCC[C@@H](CCO)Nc1nc(N)nc2cn(Cc3ccc(CO)cc3OC)nc12` [IIa-35], the 50% effective concentration (EC50) was 2100 nM.

As to `CCCCNc1nc(N)nc2cn(Cc3ccc(CNC4CCC(O)CC4)cc3OC)nc12` (stereo not shown) [IIa-08], the EC50 came out at 650 nM. With `CCCCNc1nc(N)nc2cn(Cc3ccc(CN4CCCC4)cc3OC)nc12` [IIa-32], the EC50 amounted to 600 nM. On to `CCCCNc1nc(N)nc2cn(Cc3ccc(CN4CCNCC4)cc3OC)nc12` [IIa-02], for which the EC50 came to 510 nM. Same read-out and setting: with `CCCCNc1nc(N)nc2cn(Cc3ccc(CNCCO)cc3OC)nc12` [IIa-03] the figure was 1000 nM. `CCCCNc1nc(N)nc2cn(Cc3ccc(CNCc4ccc(N)cc4)cc3OC)nc12` [IIa-10]: the EC50 was 270 nM.

Regarding `CCCCNc1nc(N)nc2cn(Cc3ccc(CN4CC(CCO)C4)cc3OC)nc12` [IIa-23], the EC50 turned out to be 303 nM.

Consider `CCCCNc1nc(N)nc2cn(Cc3ccc(CN4CCOCC4)cc3OC)nc12` [IIa-30], for which the EC50 was determined as 580 nM. Still for that read-out and setting: with `CCCCNc1nc(N)nc2cn(Cc3ccc(CO)cc3OC)nc12` [IIa-14] the figure was 550 nM. Regarding `CCCCNc1nc(N)nc2cn(Cc3ccc(CNCc4ccncc4)cc3OC)nc12` [IIa-05], the concentration for a half-maximal effect (EC50) is 450 nM.

As to `CCCCNc1nc(N)nc2cn(Cc3ccc(CN4CC5CC4CN5)cc3OC)nc12` (stereo not shown) [IIa-27], the concentration for a half-maximal effect (EC50) worked out at 710 nM.

With `CCCCNc1nc(N)nc2cn(Cc3ccc(CNC4CCC4)cc3OC)nc12` [IIa-01], the EC50 was determined as 340 nM. With `CCCCNc1nc(N)nc2cn(Cc3ccc(CNC4CCOCC4)cc3OC)nc12` [IIa-19], the EC50 came to 320 nM. Consider `CCCCNc1nc(N)nc2cn(Cc3ccc(CNC(C)(C)C)cc3OC)nc12` [IIa-34], for which the EC50 is 550 nM. `CCCCNc1nc(N)nc2cn(Cc3ccc(CN4CCCNCC4)cc3OC)nc12` [IIa-29]: the EC50 is 760 nM. Turning to `CCCCNc1nc(N)nc2cn(Cc3ccc(CNC4COC4)cc3OC)nc12` [IIa-15], the EC50 turned out to be 300 nM. Still for that read-out and setting: under `CCCCNc1nc(N)nc2cn(Cc3ccc(CN4CCN(CCO)CC4)cc3OC)nc12` [IIa-17] stands 180 nM. In the case of `CCCCNc1nc(N)nc2cn(Cc3ccc(CN(C)CCCO)cc3OC)nc12` [IIa-26], the half-maximal effective concentration (EC50) worked out at 194 nM. Consider `CCCCNc1nc(N)nc2cn(Cc3ccc(CNCCS(C)(=O)=O)cc3OC)nc12` [IIa-11], for which the EC50 turned out to be 540 nM. Consider `CCCCNc1nc(N)nc2cn(Cc3ccc(CNCCCN)cc3OC)nc12` [IIa-04], for which the EC50 turned out to be 1600 nM. For the compound `CCCCNc1nc(N)nc2cn(Cc3ccc(Cn4ccnc4)cc3OC)nc12` [IIa-21], the EC50 came to 190 nM.

Turning to `CCCCNc1nc(N)nc2cn(Cc3ccc(CNCCOC)cc3OC)nc12` [IIa-22], the EC50 amounted to 200 nM. With `CCCCNCc1ccc(Cn2cc3nc(N)nc(NCCCC)c3n2)c(OC)c1` [IIa-33], the EC50 worked out at 810 nM. As for `CCCCNc1nc(N)nc2cn(Cc3ccc(CNC4(CO)CCCC4)cc3OC)nc12` [IIa-28], the EC50 was determined as 430 nM. In the case of `CCCCNc1nc(N)nc2cn(Cc3ccc(CN4CCN(C)CC4)cc3OC)nc12` [IIa-36], the EC50 stood at 520 nM. For `CCCCNc1nc(N)nc2cn(Cc3ccc(CNCC(C)(C)O)cc3OC)nc12` [IIa-20], the EC50 came out at 280 nM.

Still in this assay, the particulars now being: Table B, formula IIb compounds; HEK-Blue TLR7 cells, 18 h treatment, SEAP read-out.
In the case of `CCCCNc1nc(N)nc2cn(Cc3ccc(Oc4ccc(CO)cc4)nc3)nc12` [IIb-01], the EC50 is 820 nM. In the case of `CCCCNc1nc(N)nc2cn(Cc3ccc(Oc4ccc(CNCCO)cc4)nc3)nc12` [IIb-04], the EC50 was determined as 2100 nM. Regarding `CCCCNc1nc(N)nc2cn(Cc3ccc(Oc4ccc(CNCCO)cc4)cc3OC)nc12` [IIb-02], the EC50 amounted to 1600 nM.

For orientation: EC50 means the concentration needed to bring the measured effect to its halfway point.
